Assay results reported in the supplement of paper PMC3974653.
Structures can show the parent of a compound that is named as a salt.

What follows are compounds tested on MTT (mouse pheochromocytoma) (assay: IC50 of cell viability (ATP content)). Details: (24 or 48 h).
Summary of the method: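 The IC50 was fitted with a four-parameter logistic equation to normalised CellTiter-Glo ATP luminescence from MTT mouse pheochromocytoma cells. These cells, in white 1536-well plates, had been treated for 24 or 48 hrs with library compounds at 8 final concentrations between 0.5 nM and 46 µM, and luminescence was read after 15 minutes. Positive-control wells served as 100% and DMSO wells as 0%.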

SMILES	IC50 of cell viability [µM]
CC(=O)O[C@@]12CO[C@@H]1C[C@H](O)[C@]3(C)[C@@H]2[C@H](OC(=O)C4=CC=CC=C4)[C@]5(O)C[C@H](OC(=O)C(O)[C@@H](NC(=O)OC(C)(C)C)C6=CC=CC=C6)C(=C(/[C@@H](O)C3=O)C5(C)C)/C (stereo partly specified) [Docetaxel]	> 46
NC(Cc1ccc(Oc2cc(I)c(O)c(I)c2)c(I)c1)C(=O)O (stereo unspecified) [Triiodothyronine, reverse]	> 46
CC(=O)SC1C\C2=C\C(=O)CCC2(C)C3CCC4(C)C(CCC45CCC(=O)O5)C13 (stereo unspecified) [Spironolactone]	> 46
CC12CCC(CC1)C(C)(C)O2 [Eucalyptol]	> 46
CC1=CC=C(C=C1)N(C\C2=N\CCN2)C3=CC=CC(=C3)O [PHENTOLAMINE]	> 46
CC12CCC3c4ccc(O)cc4CCC3C1CCC2=O (stereo unspecified) [oestrone]	> 46
CN(C)CCN1C(=O)c2ccccc2N(C)c2ccccc21 [Dibenzepina]	> 46
c1ccc2c(c1)Sc1ccccc1N2CC1CN2CCC1CC2 (stereo unspecified) [Mequitazine]	> 46
CCCCCC(O)C1C(=O)OC(C)C(O)C=CC=CC=CC=CC=C(C)C(O)C(O)C(O)CC(O)CC(O)CC(O)CC(O)CC1O (stereo unspecified) [PENTAMYCIN]	> 46
CNCCC(Oc1ccccc1OC)c1ccccc1 (stereo unspecified) [NISOXETINE]	> 46
CN1[C@@H]2CC[C@H]1C[C@@H](OC(c1ccccc1)c1ccccc1)C2 [Benzatropina]	> 46
N[S+](=O)([O-])c1cc([C@]2(O)NC(=O)c3ccccc32)ccc1Cl [Chlorthalidone]	> 46
CCOc1ccc(NC(=S)Nc2ccc(OCC)cc2)cc1 [Etocarlida]	> 46
Br.CN1[C@H]2C[C@H](OC(=O)[C@H](CO)c3ccccc3)C[C@H]1[C@H]1O[C@H]12.O.O.O [Scopolamine hydrobromide trihydrate]	> 46
CC(=O)N[C@@H]1C(O[C@H]2O[C@H](C(=O)O)C(O)[C@H](O)[C@H]2O)[C@H](O)[C@@H](CO)O[C@H]1O[C@@H]1C(C(=O)O)O[C@@H](O[C@H]2[C@H](O)[C@@H](CO)OC(O)[C@@H]2NC(C)=O)[C@H](O)[C@H]1O (stereo partly specified) [HYALURONATE SODIUM]	> 46
O.O.OC1=CC2=C(C(=C1)O)C(=O)\C(=C(/O2)C3=CC(=C(O)C=C3)O)O [Quercetine dihydrate]	> 46
CN[S+](=O)([O-])CCc1ccc2[nH]cc(C3CCN(C)CC3)c2c1 [Naratriptan Hydrochloride]	> 46
CN(C)CCc1c[nH]c2cccc(OP(=O)(O)O)c12 [Psilocybin]	> 46
Nc1ccc(Cl)cc1N [4-Chloro-o-phenylenediamine]	> 46
CSc1ccc2c(c1)N(CCC1CCCCN1C)c1ccccc1S2 (stereo unspecified) [THIORIDAZINE]	> 46

SMILES	IC50 of cell viability [µM]
FC(F)OC(F)(F)C(F)Cl (stereo unspecified) [ENFLURANE]	> 46
CCC1(CC)C(=O)NC(=O)NC1=O [Barbital]	> 46
O=C1C[N+]([O-])=C(c2ccccc2)c2cc(Cl)ccc2N1 [Demoxepam]	> 46
C\C1=C\C(=O)C2=C(C=CC=C2)C1=O [MENADIONE]	> 46
CC(=O)[C@]1(O)CCC2C3/C=C(Cl)\C4=C\C(=O)C5CC5[C@@]4(C)C3CC[C@@]12C (stereo partly specified) [CYPROTERONE]	> 46
CCOC(=O)Nc1ccc(NCc2ccc(F)cc2)nc1N.O=C(O)/C=C\C(=O)O [Flupirtine maleate]	> 46
NNc1nncc2ccccc12 [Hydralazine hydrochloride]	> 46
c1cnc(N2CCN(Cc3ccc4c(c3)OCO4)CC2)nc1 [PIRIBEDIL]	> 46
N#C/C(=C1/SCC(c2ccccc2Cl)S1)n1ccnc1 (stereo unspecified) [LANOCONAZOLE]	> 46
CN1CCc2cc(Cl)c(O)cc2[C@H]2c3ccccc3CC[C@@H]21 [ECOPIPAMUM]	> 46
COC(=O)C1=C(C#N)NC(C)=C(C(=O)OC(C)C)C1c1cccc([N+](=O)[O-])c1 (stereo unspecified) [NILVADIPINE]	> 46
O=C([O-])P(=O)([O-])[O-].[Na+].[Na+].[Na+] [FOSCARNET SODIUM]	> 46
FC(F)(F)c1ccccc1-n1ccnc1 [TRIM]	> 46
NCC1(CC(=O)O)CCCCC1 [Gabapentin]	> 46
OC/C=C/c1ccccc1 [Cinnamyl alcohol]	> 46
C=CCC1(C(C)CCC)C(=O)NC(=O)NC1=O (stereo not drawn) [R-(+)-Secobarbital]	> 46
Oc1cc(Cl)ccc1Oc1ccc(Cl)cc1Cl [Triclosan]	> 46
Clc1cccc(N2CCNCC2)c1 [1-(3-CHLOROPHENYL)PIPERAZINE]	> 46
NC(=O)CN1CCCC1=O [Piracetam]	> 46

Results, then the compound that gave them:

IC50 of cell viability [µM]	SMILES
> 46	COc1cc(C(C)=O)ccc1OCCCN1CCC(c2noc3cc(F)ccc23)CC1 [Iloperidone]
> 46	CCN(CC)C(=O)c1cccnc1 [Nikethamide]
> 46	CCCCCCCCCCCCCCCCCC(=O)O [Stearic acid]
> 46	CC(C(=O)O)c1ccc(/C=C2\CCCCC2=O)cc1 (stereo unspecified) [PELUBIPROFEN]
> 46	CCCCCCCCCCCC(=O)OCC(O)C1OCC(O)C1O (stereo unspecified) [SORBITANI LAURAS]
> 46	CCOC(=O)C\1=C(COCCN)\N\C(=C(/C1C2=CC=CC=C2Cl)C(=O)OC)C.O[S+]([O-])(=O)C3=CC=CC=C3 (stereo unspecified) [AMLODIPINE BESYLATE]
> 46	CCCC1([C@H](O)C/C=C/[C@H]2[C@H](O)CC(=O)[C@@H]2CCCCCCC(=O)OC)CCC1 [(R)-Butaprost]
> 46	CCCCCCCCCC(=O)O [Decanoic acid]
> 46	CC(C)(C(=O)O)c1ccc(C(O)CCCN2CCC(C(O)(c3ccccc3)c3ccccc3)CC2)cc1 (stereo unspecified) [Fexofenadine]
> 46	CCC[C@H]1C[C@H](C(=O)N[C@@H]([C@@H]2O[C@@H](SC)[C@@H](O)[C@@H](O)[C@H]2O)[C@H](C)Cl)N(C)C1 [Clindamycin hydrochloride]
> 46	CCCCCCCCCCCC(CC1OC(=O)C1CCCCCC)OC(=O)C(CC(C)C)NC=O (stereo unspecified) [ORLISTAT]
> 46	CCCCCCCCCCCCCCCCCCNC(=O)OC1CCN(C(=O)OC[C@H](COC(=O)N(Cc2cccc[n+]2CC)C(=O)c2ccccc2OC)OC)CC1 [Minopafant]
> 46	COc1cc(C(=O)OCCCN2CCCN(CCCOC(=O)c3cc(OC)c(OC)c(OC)c3)CC2)cc(OC)c1OC [DILAZEP]
> 46	CNNCc1ccc(C(=O)NC(C)C)cc1 [Procarbazine hydrochloride]
> 46	FC1=CC=C(C=C1)C(=O)CCCN2CC\C(=C/C2)N3C(=O)NC4=C3C=CC=C4 [Droperidol]
> 46	O=C(O)CCNC(=O)c1ccc(/N=N/c2ccc(O)c(C(=O)O)c2)cc1 [BALSALAZIDE DISODIUM]

IC50 of cell viability [µM]	SMILES
> 46	CCOC(C)OCC [Acetal (Acetaldehyde diethyl acetal)]
> 46	Cc1cc(CC(=O)[O-])n(C)c1C(=O)c1ccc(Cl)cc1 [Sodium zomepirac]
> 46	C[C@]12CCC(=O)C=C1CC[C@@H]1[C@@H]2[C@@H](O)C[C@@]2(C)[C@H]1CC[C@]2(O)C(=O)COP(=O)([O-])[O-] [HYDROCORTISONE SODIUM PHOSPHATE]
> 46	NC(=O)C[C@@H](N)C(=O)O [D-ASPARAGINE]
> 46	CCC(=O)O[C@@H](OP(=O)(CCCCc1ccccc1)CC(=O)N1C[C@H](C2CCCCC2)C[C@H]1C(=O)[O-])C(C)C (stereo partly specified) [FOSINOPRIL SODIUM]
> 46	O=C([O-])COc1nn(Cc2ccccc2)c2ccccc12 [BENDAZAC]
> 46	NCCCC[C@H](NC(=O)[C@@H]1CCCN1C(=O)[C@@H]1CSSC[C@H](NC(=O)CNC(=O)CNC(=O)CN)C(=O)N[C@@H](Cc2ccc(O)cc2)C(=O)N[C@@H](Cc2ccccc2)C(=O)N[C@@H](CCC(N)=O)C(=O)N[C@@H](CC(N)=O)C(=O)N1)C(=O)NCC(N)=O [TERLIPRESSIN]
> 46	CCOc1ccc(S(=O)(=O)O)c2cccnc12 [Actinoquinolum]
> 46	CC(C)CCCC(C)NC(C)C (stereo unspecified) [IPROHEPTINE HYDROCHLORIDE]
> 46	O=C(OCc1ccccc1)c1ccc(O)cc1 [benzyl 4-hydroxybenzoate]
> 46	COc1ccc(CCN(C)CCCC(C#N)(c2ccc(OC)c(OC)c2)C(C)C)cc1OC (stereo unspecified) [VERAPAMIL]
> 46	C/C=C/C=C/C(=O)O [Sorbic acid]
> 46	COc1cccc(CCc2ccccc2OCC(CN(C)C)OC(=O)CCC(=O)O)c1 (stereo unspecified) [SARPOGRELATE HYDROCHLORIDE]
> 46	CNC(=N)NC(=O)Nc1c(C)cccc1C [Lidamidine]
> 46	CC#CC[C@@H](C)[C@@H](O)/C=C/[C@H]1[C@H]2c3cccc(CCCC(=O)[O-])c3O[C@H]2C[C@@H]1O [BERAPROST SODIUM]
> 46	O.O=C(O)[C@H]1[C@H]2C[C@H]3c4[nH]c5ccccc5c4CCN3C[C@@H]2CC[C@@H]1O [Yohimbinic acid monohydrate]
